Results: paper PMC4537050, “A long pentraxin-3-derived pentapeptide for the therapy of FGF8b-driven steroid hormone-regulated cancers” (Oncotarget, 2015)

What was measured:
[1] = In vivo ARPCA toxicity studies
Description: Eight week-old C57BL/6 mice were treated i.p. with 100 mg/kg of ARPCA every other day for two weeks. During this period, animals were weighted for body weight variation analysis. At the end of treatment, whole blood and serum were harvested and analysed for blood components, biochemical serum parameters and circulating levels of FGF23. The serum levels of FGF23 were assessed by ELISA (Uscn Life Science Inc., Wuhan, PRC, Asia) according to manufacturer's instructions. Untreated mice were used as reference/control.

S115 tumors = assay: In vivo tumor therapy study, S115 tumors; parameters: species or system athymic Nu/Nu male mice; conditions: s.c. S115 cells, i.p. 100 mg/kg every other day starting at day 8, followed for the next 32 days
Description: Eight week old C57BL/6 male mice were injected s.c. with 8×10^6 TRAMP-C2 cells, and eight week old athymic Nu/Nu male mice were injected s.c. with 5×10^6 S115 cells. All injections were performed in 200 μl total volume of PBS into the dorsolateral flank. When tumors were palpable treatment was performed every other day by i.p. injection of ARPCA, ARPVA (both at 100 mg/kg) or vehicle (PBS) in 100 μl final volume. Tumors were measured in two dimensions and tumor volume was calculated according to the formula V=(D × d^2)/2, where D and d are the major and minor perpendicular tumor diameters, respectively. At the end of the experimental procedure tumors were harvested, weighted and photographed.

[2] = system: chick embryo chorioallantoic membrane (CAM); assay: Chick embryo CAM assay with growth factor alginate implants; type: in vivo; conditions: vessels counted at day 14
Description: Alginate plugs containing vehicle, FGF8b (4.5 pmoles/embryo), VEGF-A (4.5 pmoles/embryo) or S115 cells (2.5×10^4/embryo) in the absence or presence of ARPCA (80 or 140 pmoles/embryo) or ARPVA (140 pmoles/embryo) were placed on the CAM of fertilized white leghorn chicken eggs at day 11 of incubation. At day 14, newly formed blood microvessels converging toward the implant were counted by two observers in a double-blind fashion at 5x magnification under a stereomicroscope (STEMI-SR, x2/0.12; Zeiss) as described.

S115 cells = assay: S115 cell proliferation assay; type: cell-based, mouse; conditions: 30 ng/ml FGF8b or 10 nM DHT, 48 h, viable cell counting
Description: HUVECs were seeded at 18000 cells/cm^2 in medium containing 2.5% FBS and stimulated with 30 ng/ml FGF8b in the absence or presence of increasing concentrations of ARPCA or ARPVA. S115 cells were seeded at 15000 cells/cm^2 in medium containing 4% hormone-deprived dextran-coated charcoal-stripped heat inactivated FBS, followed by 24 h serum starvation in 1:1 mixture of serum-free Ham's F12 and DMEM. Cells were stimulated for 48 h with 30 ng/ml FGF8b or 10 nM DHT in the presence or absence of different concentrations of ARPCA or ARPVA (as specified in the corresponding figures). Viable cell counts were obtained by the counting function of the MACSQuant® Analyzer (Miltenyi Biotec, Bergisch-Gladbach, Germany, EU).

FGF6 = target: T1, FGF6 (Homo sapiens, UniProt P10767); assay: SPR analysis of FGF/ARPCA interaction, FGF6; type: binding; conditions: immobilized FGF6
T1 sequence (P10767 38-208): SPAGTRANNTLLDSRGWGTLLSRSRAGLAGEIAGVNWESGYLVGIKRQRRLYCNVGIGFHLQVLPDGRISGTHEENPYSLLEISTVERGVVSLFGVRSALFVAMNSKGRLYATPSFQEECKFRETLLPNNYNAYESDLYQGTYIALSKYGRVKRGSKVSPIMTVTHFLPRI

FGF10 = target: T2, FGF10 (Homo sapiens, UniProt O15520); assay: SPR analysis of FGF/ARPCA interaction, FGF10; type: binding; conditions: immobilized FGF10
T2 sequence (O15520 38-208): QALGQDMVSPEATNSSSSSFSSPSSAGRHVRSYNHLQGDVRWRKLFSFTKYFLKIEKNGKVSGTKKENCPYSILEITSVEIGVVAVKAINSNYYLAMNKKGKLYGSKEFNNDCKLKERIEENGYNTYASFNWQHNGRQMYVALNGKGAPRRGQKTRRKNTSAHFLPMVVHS

[3] = system: FGFR1 phosphorylation and ERK1/2 activation in S115 cells; assay: Western blot of FGF8b-treated S115 cells; type: cell-based, mouse; conditions: 30 ng/ml FGF8b, 100 μM peptide, 20 minutes
Description: S115 cells were treated with FGF8b (30ng/ml) in the presence or absence of ARPCA (100 μM) or ARPVA (100 μM). After 20 minutes of incubation cell samples were washed in cold PBS and homogenized in RIPA buffer containing 1% Triton-X100, 0.2% BriJ, 1 mM sodium orthovanadate and protease inhibitors cocktail. Protein concentrations were determined using the Bradford protein assay (Bio-Rad Laboratories, Milano, Italy). Blotting analysis was performed using anti-FGFR1, anti-phospho FGFR1 and anti-phosphoERK1/2 antibodies (Santa Cruz Biotechnology, Santa Cruz, CA, USA). Equal loading of the lanes was confirmed by immunoblotting with anti–αTubulin (Sigma-Aldrich) antibody.

S115 tumor grafts = assay: Murine s.c. alginate implant assay, S115 cells; type: in vivo, athymic Nu/Nu male mice; conditions: i.p. 100 mg/kg every other day, plugs harvested day 14, compared to ARPVA-treated animals
Description: Eightweek-old athymic Nu/Nu or C57BL/6 male mice were injected s.c. with 450 μl of 3% (w/v) sodium alginate solution (alginic acid dissolved in LPS-free PBS) containing 5×10^6 S115 or 8×10^6 TRAMP-C2 cells, respectively. Mice were treated i.p. with ARPCA or ARPVA (100 mg/kg) on day 7, 9, 11 and 13 after implant. On day 14, alginate gels were harvested, weighted, embedded in OCT-compound and immediately frozen to be processed for histological analysis. For immunofluorescence stainings, sections (5 μm thick) were obtained with a cryostat microtome, air dried and fixed with acetone (for 5 min at 4°C). After blocking with 1% BSA (Bovine Serum Albumin) in PBS for 10 minutes, sections were incubated with primary antibodies, rabbit anti-FGFR1 (Santa Cruz Biotechnology), rabbit anti-phospho FGFR1 (Santa Cruz Biotechnology), Ki67 (Dako, Milano, Italy, EU) or CD31 (BD Biosciences Pharmingen, San Diego, CA, USA). After washing with PBS containing 0.05% Tween 20, sections were incubated with the appropriate Alexa Fluor 488 or Alexa Fluor 594-conjugated secondary antibody (Invitrogen). After mounting in a drop of anti-bleaching mounting medium containing DAPI (Vectashield, Vector Laboratories, Burlingame, CA, USA), sections were examined under a Zeiss Fluorescence Axiovert 200M microscope (Carl Zeiss).

Ac-ARPCA-NH2 [ARPCA, Ac-ARPCA-NH2]
body weight ([1]; i.p. 100 mg/kg every other day for two weeks): did not affect | hematologic parameters, blood serum components and FGF23 serum levels (in words) ([1]; long-term administration, i.p. 100 mg/kg every other day): did not affect | S115 tumor growth, long-term experiment (S115 tumors): suppresses S115 tumor growth | angiogenic response elicited by FGF8b in the CAM ([2]; 4.5 pmoles FGF8b/plug, ARPCA 80 or 140 pmoles, ARPVA 140 pmoles): significantly reduced | angiogenic response elicited by VEGF-A in the CAM ([2]; 4.5 pmoles VEGF-A/plug): No inhibitory effect | mitogenic response of S115 cells to FGF8b or DHT (S115 cells): impairs the mitogenic response | Kd, FGF6 (FGF6): n.b. | Kd, FGF10 (FGF10): n.b. | FGFR1 phosphorylation in S115 cells treated with FGF8b [3]: inhibits FGFR1 phosphorylation | MAPK ERK1/2 activation in S115 cells treated with FGF8b [3]: inhibits | CD31+ neovascularization in S115 tumor grafts (S115 tumor grafts): efficiently inhibited | FGFR1 phosphorylation in S115 tumor grafts (S115 tumor grafts): efficiently inhibited | Ki67+ proliferation index in S115 tumor grafts (S115 tumor grafts): efficiently inhibited
